Source: ChEMBL document CHEMBL5579793, “Design of cyclic peptides as novel inhibitors of ICOS/ICOSL interaction” (Bioorg Med Chem Lett, 2024)
Active and inactive are the calls of the source. No cut-off for these calls is given here. Where a SMILES comes first, the peptide text is derived from it. Bridges are numbered along the chain shown (N, C = ends).

Experiments:
Homo sapiens [1] = organism: Homo sapiens; experiment: Inhibition of LAG-3/FGL1 (unknown origin) protein-protein interaction at 50 uM by TR-FRET assay
ICOS-ICOSL [2] = target: T1, ICOS-ICOSL (Homo sapiens, UniProt O75144+Q9Y6W8); experiment: (§1) Inhibition of ICOS/ICOSL (unknown origin) interaction by ELISA method; format: protein assay
T1 sequence (O75144 whole entry): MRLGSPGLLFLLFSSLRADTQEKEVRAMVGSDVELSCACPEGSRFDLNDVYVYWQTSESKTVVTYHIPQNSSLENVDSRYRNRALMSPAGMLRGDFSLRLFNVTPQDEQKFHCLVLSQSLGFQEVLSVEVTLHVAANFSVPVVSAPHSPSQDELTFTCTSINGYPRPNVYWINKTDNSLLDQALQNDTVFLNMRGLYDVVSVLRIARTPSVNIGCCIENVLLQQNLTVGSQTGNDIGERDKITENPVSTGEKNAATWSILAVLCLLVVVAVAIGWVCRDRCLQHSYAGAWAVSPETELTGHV
T1 sequence (Q9Y6W8 whole entry): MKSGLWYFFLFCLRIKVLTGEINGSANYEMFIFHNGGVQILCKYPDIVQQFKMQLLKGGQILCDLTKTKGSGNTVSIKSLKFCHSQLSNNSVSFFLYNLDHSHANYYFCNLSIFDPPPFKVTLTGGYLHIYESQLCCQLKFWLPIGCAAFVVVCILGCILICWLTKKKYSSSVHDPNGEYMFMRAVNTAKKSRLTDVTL

[3] = Apparent permeability of the compound in human Caco-2 cells across apical to basolateral side; format: ADME, cell-based
[4] = Stability in rat liver microsomes assessed as half life; format: ADME, Microsome
Homo sapiens [5] = organism: Homo sapiens; experiment: Inhibition of PD-1/PD-L1 (unknown origin) protein-protein interaction at 50 uM by TR-FRET assay
[6] = target: T2, Inducible T-cell costimulator (Homo sapiens, UniProt Q9Y6W8); experiment: Binding affinity to ICOS (unknown origin) assessed as dissociation constant
T2 sequence (Q9Y6W8 whole entry): T1 sequence (Q9Y6W8 whole entry)

Homo sapiens [7] = organism: Homo sapiens; experiment: Inhibition of VISTA/VSIG-3 (unknown origin) protein-protein interaction at 50 uM by TR-FRET assay
[8] = Lipophilicity, log D of compound at pH 7.4 by shake-flask method; format: physicochemical; details: buffer
[9] = Stability of the compound in stimulated intestinal fluid assessed as half life at pH 6.5; format: ADME; details: simulated intestinal fluid
[10] = Stability in human plasma assessed as parent compound remaining measured after 2 hrs; format: ADME, cell-free; details: read-out: Stability
[11] = Apparent permeability of the compound in human Caco-2 cells across basolateral to apical side; format: ADME, cell-based
[12] = Stability of the compound in stimulated gastric fluid assessed as half life at pH 1.6; format: ADME; details: simulated gastric fluid
ICOS-ICOSL [13] = target: T1, ICOS-ICOSL; experiment: (§2) Inhibition of ICOS/ICOSL (unknown origin) interaction by TR-FRET assay; format: protein assay
Homo sapiens [14] = organism: Homo sapiens; experiment: Inhibition of CTLA4/B-7 (unknown origin) protein-protein interaction at 50 uM by TR-FRET assay
[15] = target: T3, ICOS-ICOSL (Homo sapiens) (UniProt O75144+Q9Y6W8); experiment: as §1; format: protein assay
[16] = target: T3, ICOS-ICOSL (Homo sapiens); experiment: as §2; format: protein assay

Compound: CC(C)C[C@H](NC(=O)[C@@H]1CSSC[C@H](NC(=O)[C@@H](N)Cc2ccc(O)cc2)C(=O)N[C@@H](Cc2ccc(O)cc2)C(=O)N2CCC[C@H]2C(=O)N[C@@H](C(C)C)C(=O)N2CCC[C@H]2C(=O)N[C@@H](Cc2ccc(O)cc2)C(=O)N2CCC[C@H]2C(=O)N2CCC[C@H]2C(=O)N[C@@H](Cc2ccccc2)C(=O)N[C@@H](Cc2ccccc2)C(=O)N[C@@H](CC(C)C)C(=O)N1)C(=O)N[C@@H](Cc1ccccc1)C(=O)N[C@@H](CC(N)=O)C(=O)O (H-YCYPVPYPPFFLCLFN-OH; disulfide 2-13)
- inhibition (Homo sapiens [1]): inactive
- IC50 (ICOS-ICOSL [2]): 1.87 µM
- Papp A→B [3]: 6.72 ×10⁻⁶ cm/s
- half-life [4]: 18.3 h
- inhibition (Homo sapiens [5]): inactive
- Kd [6]: 36.7 µM
- inhibition (Homo sapiens [7]): inactive
- logD [8]: 2.94
- half-life [9]: 20.4 h
- remaining at 2 h [10]: 98.2%
- Papp B→A [11]: 10.8 ×10⁻⁶ cm/s
- half-life [12]: 6.5 h
- IC50 (ICOS-ICOSL [13]): 4.48 µM
- inhibition (Homo sapiens [14]): inactive

Compound: CC[C@H](C)[C@@H]1NC(=O)[C@H](CO)NC(=O)[C@H](Cc2ccc(O)cc2)NC(=O)[C@H](Cc2ccc(O)cc2)NC(=O)[C@@H]2CSSC[C@H](NC(=O)[C@H](CC(C)C)NC(=O)[C@@H]3CCCN3C(=O)[C@@H]3CCCN3C1=O)C(=O)N[C@@H](CC(C)C)C(=O)N1CCC[C@H]1C(=O)N[C@@H](Cc1ccccc1)C(=O)NCC(=O)N[C@@H](CCCNC(=N)N)C(=O)N2 (cyclo(CLPFGRCYYSIPPL); disulfide 1-7)
- inhibition [15]: inactive
- Kd [6]: 4.47 µM
- inhibition [16]: inactive

Compound: CC(C)C[C@@H]1NC(=O)[C@H](Cc2ccccc2)NC(=O)[C@H](Cc2ccccc2)NC(=O)[C@@H]2CCCN2C(=O)[C@@H]2CCCN2C(=O)[C@H](Cc2ccc(O)cc2)NC(=O)[C@@H]2CCCN2C(=O)[C@H](C(C)C)NC(=O)[C@@H]2CCCN2C(=O)[C@H](Cc2ccc(O)cc2)NC(=O)[C@@H]2CSSC[C@H](NC1=O)C(=O)N[C@@H](CC(C)C)C(=O)N1CCC[C@H]1C(=O)N[C@@H](Cc1ccccc1)C(=O)N[C@@H](Cc1ccc(O)cc1)C(=O)N2 (cyclo(CLPFYCYPVPYPPFFL); disulfide 1-6)
- inhibition [15]: inactive
- IC50 (ICOS-ICOSL [13]): 3.68 µM
